Converted amounts (≈) assume the structure as drawn. Where two headings read alike, the source gives them in different places.
Key:
Type in all cases: physicochemical
[1] = Interconversion studies of solid forms of Compound 1 (slurry); details: water or MeOH/water (1/4) at RT and 50° C. for 3 days
Procedure: Interconversion Studies: Equal amounts (˜7 mg) of Form I, II and III were mixed together and then suspended in 0.5 mL of different solvents at room temperature or 50° C., respectively. Residual solids were collected by filtration and characterized at appropriate time. Additionally, Form IV (˜12 mg) was slurried in 0.5 ml, water or MeOH/water (1/4) at RT or 50° C. for 3 days. Residual solids were collected by filtration and analyzed by XRPD.

[2] = Dynamic moisture sorption analysis (DVS) of Form IV of Compound 1
Procedure: Method 1. Used for studies with solid state of Compound 1. Moisture sorption/desorption data was collected on a DVS Intrinsic (SMS, UK). The sample was placed into a tared sample chamber and automatically weighed. The sample was dried at 40° C. until the dm/dt was less than 0.002% and cooled to 25° C. Set the instrument parameters as below.

[3] = Solubility of Compound 1 solid forms in bio-relevant media and water
Procedure: Solubility Studies: Solubility of Form IV was tested in three bio-relevant media (Simulated Gastric Fluid (SGF), Fasted State Simulated Intestinal Fluid (FaSSIF), and Fed State Simulated Intestinal Fluid (FeSSIF)) and water. […] Form IV (˜10 mg) was weighed into 2 mL of four media to make suspensions respectively, and about 10 mg of the amorphous starting material was also added into 2 mL of FaSSIF. Then all suspensions were shaken at 37° C. with 200 rpm for up to 24 hours. At 0.5, 2 and 24 hours, about 0.7 mL of each suspension was filtered. The filtrate was analyzed by HPLC and pH meter, and the residual solids were also checked by XRPD at 24 hours.

[4] = Stability studies of Form IV of Compound 1 (HPLC and XRPD)
Procedure: Method 1. a representative HPLC method is shown below, which can be used, for example, to analyze the purity, solubility, and stability of Compound 1 herein.
Stability Studies: Appropriate amounts of Form IV were put at 40° C./75% RH, 60° C. and 25±2° C./92.5% RH conditions for 14 days. Then the sample was tested by HPLC and XRPD to determine the chemical and physical stability.

[5] = Mechanical stability (grinding) of Form IV of Compound 1; details: ground for 2 and 5 min
Procedure: Form IV was also tested for mechanical stability. In this case, appropriate amount of Form IV was ground for 2 and 5 min, and then tested by XRPD to check the crystal form.

[6] = Polymorph characterization summary of Compound 1 forms (form stability)
From the text: In the polymorph screening, five XRPD Patterns (FIG. 11) were generated, and four forms were identified including 2 anhydrates and 2 hydrates.

Question: Which “Form after slurry in aqueous systems (XRPD)” value [1] does the source give for C=CC(=O)N1C[C@H](C)N(c2nc(=O)n(-c3c(C4CC4)ncnc3C3CC3)c3nc(-c4c(N)cccc4F)c(Cl)cc23)C[C@H]1C [Form IV] here?
Answer: The value was “remained unchanged”.

Question: And the “Crystal form after DVS testing” value [2]?
Answer: Its value is “remained unchanged”.

Question: And the “Hygroscopicity (DVS)” value ([2]; 25° C.)?
Answer: Its value is “slightly hygroscopic”.

Question: What about the “Water uptake (DVS)” value ([2]; at 80% RH, 25° C.) of the same compound?
Answer: Its value is “about 1.37%”.

Question: And the Solubility ([3]; FaSSIF, 37° C., 0.5 h)?
Answer: The Solubility was 17 µg/mL (≈ 27.6 µM).

Question: What about the Solubility ([3]; FaSSIF, 37° C., 2 h) of the same compound?
Answer: The Solubility was 16 µg/mL (≈ 26 µM).

Question: What about the Solubility ([3]; FaSSIF, 37° C., 24 h) of the same compound?
Answer: Its Solubility is 21 µg/mL (≈ 34.1 µM).

Question: What about the “XRPD-24 h of residual solids” value ([3]; FaSSIF, 37° C., 24 h) of the same compound?
Answer: Its value is “unchanged”.

Question: And the “Solubility in FaSSIF” value ([3]; FaSSIF, time point not stated)?
Answer: Its value is 20 µg/mL (≈ 32.5 µM).

Question: And the “XRPD-24 h of residual solids” value ([3]; FeSSIF, 37° C., 24 h)?
Answer: Its value is “unchanged”.

Question: What about the solubility at 0.5 h ([3]; FeSSIF, 37 °C, thermodynamic from solid, 0.5 h) of the same compound?
Answer: The solubility at 0.5 h was 37 µg/mL (≈ 60.2 µM).

Question: What about the solubility at 2 h ([3]; FeSSIF, 37 °C, thermodynamic from solid, 2 h) of the same compound?
Answer: Its solubility at 2 h is 37 µg/mL (≈ 60.2 µM).

Question: And the solubility at 24 h ([3]; FeSSIF, 37 °C, thermodynamic from solid, 24 h)?
Answer: Its solubility at 24 h is 62 µg/mL (≈ 101 µM).

Question: What about the “XRPD-24 h of residual solids” value ([3]; SGF, 37° C., 24 h) of the same compound?
Answer: The value was “unchanged”.

Question: What about the solubility at 0.5 h ([3]; SGF, 37 °C, simulated gastric fluid, thermodynamic from solid, 0.5 h) of the same compound?
Answer: The solubility at 0.5 h was 36 µg/mL (≈ 58.5 µM).

Question: What about the solubility at 2 h ([3]; SGF, 37 °C, simulated gastric fluid, thermodynamic from solid, 2 h) of the same compound?
Answer: Its solubility at 2 h is 34 µg/mL (≈ 55.3 µM).

Question: And the solubility at 24 h ([3]; SGF, 37 °C, simulated gastric fluid, thermodynamic from solid, 24 h)?
Answer: The solubility at 24 h was 36 µg/mL (≈ 58.5 µM).

Question: And the Solubility ([3]; SGF, FeSSIF, water, 37 °C, thermodynamic from solid, media other than FaSSIF (SGF, FeSSIF, water), read-out: Solubility in other media)?
Answer: The Solubility was less than 70 µg/mL.

Question: And the “XRPD-24 h of residual solids” value ([3]; Water, 37° C., 24 h)?
Answer: The value was “unchanged”.

Question: And the solubility at 0.5 h ([3]; water, 37 °C, thermodynamic from solid, 0.5 h)?
Answer: Its solubility at 0.5 h is 14 µg/mL (≈ 22.8 µM).

Question: And the solubility at 2 h ([3]; water, 37 °C, thermodynamic from solid, 2 h)?
Answer: Its solubility at 2 h is 11 µg/mL (≈ 17.9 µM).

Question: What about the solubility at 24 h ([3]; water, 37 °C, thermodynamic from solid, 24 h) of the same compound?
Answer: The solubility at 24 h was 9 µg/mL (≈ 14.6 µM).

Question: What about the Purity ([4]; 40° C./75% RH, 7 D) of the same compound?
Answer: The Purity was 98.21 Area %.

Question: And the Purity ([4]; 40° C./75% RH, 14 D)?
Answer: Its Purity is 98.12 Area %.

Question: What about the “Physical stability, XRPD” value ([4]; 40° C./75% RH, 60° C. and 25° C./92.5% RH, 14 days) of the same compound?
Answer: The value was “XRPD remained unchanged”.

Question: And the “Chemical stability, impurities” value ([4]; 60° C. for 2 weeks)?
Answer: The value was “a new impurity was detected”.

Question: What about the Purity ([4]; 60° C., 7 D) of the same compound?
Answer: Its Purity is 97.98 Area %.

Question: And the Purity ([4]; 60° C., 14 D)?
Answer: The Purity was 97.88 Area %.

Question: And the Purity-initial ([4]; initial, before storage)?
Answer: Its Purity-initial is 98.30 Area %.

Question: What about the “Crystal form after grinding (XRPD)” value [5] of the same compound?
Answer: The value was “no new form was generated”.

Question: And the “Stability of the solid form” value [6]?
Answer: The value was “Stable form, slightly”.

Source: patent US11241437B2, “Heterocyclic compounds, preparation methods and uses thereof” (InventisBio Co., Ltd., priority 2019, dated 2022)
